Laboratory results taken from paper PMC10854447 (Journal of Enzyme Inhibition and Medicinal Chemistry, 2024).

Assays:
[1] = test system: pancreatic cancer (Panc-1) cell line; assay: cells; conditions: Homo sapiens, PANC-1, read-out: Antiproliferative activity IC50 ± SEM, Panc-1
[2] = test system: breast cancer (MCF-7) cell line; assay: cells; conditions: Homo sapiens, MCF7, read-out: Antiproliferative activity IC50 ± SEM, MCF-7
Cell viability assay = type: cell-based; conditions: human, MCF-10A normal mammary gland epithelial cells
[3] = test system: colon cancer (HT-29) cell line; assay: cells; conditions: Homo sapiens, HT-29, read-out: Antiproliferative activity IC50 ± SEM, HT-29
[4] = test system: four cancer cell lines (A-549, MCF-7, Panc-1, HT-29); assay: Antiproliferative assay, average over the four cancer cell lines; conditions: for fold less potent than the reference Erlotinib (GI50): GI50 ratio vs Erlotinib
[5] = test system: lung cancer (A-549) cell line; assay: cells; conditions: Homo sapiens, A549, read-out: Antiproliferative activity IC50 ± SEM, A-549
EGFR = EGFR (Homo sapiens, UniProt P00533); assay: EGFR inhibitory assay; type: biochemical
VEGFR-2 = VEGFR-2 (Homo sapiens, UniProt P35968); assay: VEGFR-2 inhibitory assay; type: biochemical; conditions: VEGFR-2 inhibition IC50 ± SEM
Caspase-3 = Caspase-3 activation assay; type: cell-based, human; conditions: A-594 cancer cell line; for Caspase-3 Fold change: vs untreated control cells
Caspase-8 = Caspase-8 level assay; type: cell-based, human; conditions: A-594 cancer cell line; for Caspase-8 Fold change: vs untreated control
Bcl-2 = Bcl-2 level assay; type: cell-based, human; conditions: A-594 cancer cell line; for Bcl-2 Fold reduction: vs untreated control
Bax = Bax level assay; type: cell-based, human; conditions: A-594 cancer cell line; for Bax Fold change: vs untreated control
[6] = test system: panel of four cancer cell lines; conditions: read-out: GI50 against four cancer cell lines; cited from earlier work

Sequence of EGFR (P00533 669-1210): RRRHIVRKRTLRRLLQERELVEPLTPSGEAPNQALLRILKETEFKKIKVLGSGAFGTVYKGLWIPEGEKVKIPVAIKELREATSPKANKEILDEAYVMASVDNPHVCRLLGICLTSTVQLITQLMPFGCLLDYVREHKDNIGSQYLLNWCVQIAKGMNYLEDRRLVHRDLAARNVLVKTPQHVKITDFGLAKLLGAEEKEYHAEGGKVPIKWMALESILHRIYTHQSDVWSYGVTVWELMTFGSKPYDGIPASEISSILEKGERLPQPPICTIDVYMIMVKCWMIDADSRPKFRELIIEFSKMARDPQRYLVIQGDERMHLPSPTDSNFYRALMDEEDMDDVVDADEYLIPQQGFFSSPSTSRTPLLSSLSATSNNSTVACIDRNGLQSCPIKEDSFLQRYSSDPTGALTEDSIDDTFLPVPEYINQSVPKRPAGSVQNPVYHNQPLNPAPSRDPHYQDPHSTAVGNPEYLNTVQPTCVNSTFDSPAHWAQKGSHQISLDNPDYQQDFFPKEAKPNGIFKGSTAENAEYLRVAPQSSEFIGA
Sequence of VEGFR-2 (P35968 20-1356): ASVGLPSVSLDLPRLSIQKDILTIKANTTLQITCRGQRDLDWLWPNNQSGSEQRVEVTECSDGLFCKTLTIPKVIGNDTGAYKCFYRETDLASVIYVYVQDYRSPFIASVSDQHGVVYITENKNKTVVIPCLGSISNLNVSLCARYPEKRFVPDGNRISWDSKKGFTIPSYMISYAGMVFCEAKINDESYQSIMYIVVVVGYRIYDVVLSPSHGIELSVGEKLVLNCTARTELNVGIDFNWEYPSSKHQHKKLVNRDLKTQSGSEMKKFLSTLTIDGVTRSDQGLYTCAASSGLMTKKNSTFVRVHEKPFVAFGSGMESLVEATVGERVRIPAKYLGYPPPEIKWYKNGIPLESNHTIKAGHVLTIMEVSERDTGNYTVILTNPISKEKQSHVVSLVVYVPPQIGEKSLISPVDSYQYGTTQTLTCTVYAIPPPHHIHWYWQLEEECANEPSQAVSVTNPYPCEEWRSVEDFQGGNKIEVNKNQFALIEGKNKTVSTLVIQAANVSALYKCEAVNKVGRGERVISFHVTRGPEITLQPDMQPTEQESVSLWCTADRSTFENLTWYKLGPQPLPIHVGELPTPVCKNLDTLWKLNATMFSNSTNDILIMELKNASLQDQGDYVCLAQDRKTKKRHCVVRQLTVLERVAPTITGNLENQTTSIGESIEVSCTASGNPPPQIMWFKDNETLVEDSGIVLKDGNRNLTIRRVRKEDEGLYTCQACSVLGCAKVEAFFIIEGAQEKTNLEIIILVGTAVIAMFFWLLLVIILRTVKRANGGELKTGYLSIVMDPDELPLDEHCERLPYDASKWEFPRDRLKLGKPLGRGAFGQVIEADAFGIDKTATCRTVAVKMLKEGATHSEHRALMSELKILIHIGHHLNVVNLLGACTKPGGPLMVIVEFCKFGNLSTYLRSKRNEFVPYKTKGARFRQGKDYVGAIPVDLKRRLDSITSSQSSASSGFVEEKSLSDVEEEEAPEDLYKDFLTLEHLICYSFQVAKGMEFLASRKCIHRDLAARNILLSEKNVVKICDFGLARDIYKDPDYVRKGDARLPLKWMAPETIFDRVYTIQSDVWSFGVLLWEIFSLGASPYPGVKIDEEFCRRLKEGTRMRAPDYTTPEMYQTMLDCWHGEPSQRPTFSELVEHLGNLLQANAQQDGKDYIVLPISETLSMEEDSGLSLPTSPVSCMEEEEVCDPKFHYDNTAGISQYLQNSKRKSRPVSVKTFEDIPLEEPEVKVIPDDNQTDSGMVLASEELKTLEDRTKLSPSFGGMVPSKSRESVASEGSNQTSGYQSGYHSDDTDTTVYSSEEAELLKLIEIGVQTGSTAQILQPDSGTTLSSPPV

Row | IC50 [1] [µM] | IC50 [2] [µM] | IC50 [3] [µM] | fold less potent than the reference Erlotinib (GI50) [4] [fold] | IC50 [5] [µM] | fold less active than the 3-halo-substituted derivatives 7i and 7h (GI50) ([4]; GI50 ratio vs 7i and 7h) [fold] | IC50 (EGFR) [µM] | IC50 (VEGFR-2) [µM] | fold less potent than the 1-naphthyl derivative 7m (GI50) ([4]; GI50 ratio vs 7m) [fold] | SMILES | viability at 4 days, 50 µM (Cell viability assay) [%] | Caspase-3 Conc (Caspase-3) [pg/mL] | Caspase-3 Fold change (Caspase-3) | Caspase-8 Conc (Caspase-8) [ng/mL] | Caspase-8 Fold change (Caspase-8) | Bcl-2 Conc (Bcl-2) [ng/mL] | Bcl-2 Fold reduction (Bcl-2) | Bax Conc (Bax) [pg/mL] | Bax Fold change (Bax) | GI50 [6] [µM]
1 | 0.096 ± 0.009 | 0.098 ± 0.009 | 0.096 ± 0.009 | 3 | 0.094 ± 0.009 |  |  |  |  | c1ccc(-c2cn(Cc3nc(-c4ccccc4)no3)nn2)cc1 [Compound 7a, 3-Phenyl-5-[(4-phenyl-1H-1,2,3-triazol-1-yl)methyl]-1,2,4-oxadiazole] | 90 |  |  |  |  |  |  |  |  | 
2 | 0.104 ± 0.01 | 0.106 ± 0.01 | 0.104 ± 0.01 |  | 0.102 ± 0.01 | 2.5 |  |  |  | Fc1ccc(-c2noc(Cn3cc(-c4ccccc4)nn3)n2)cc1 [Compound 7b, 3-(4-Fluorophenyl)-5-[(4-phenyl-1H-1,2,3-triazol-1-yl)methyl]-1,2,4-oxadiazole] | 91 |  |  |  |  |  |  |  |  | 
3 | 0.09 ± 0.009 | 0.094 ± 0.009 | 0.092 ± 0.009 |  | 0.087 ± 0.008 |  |  |  |  | Clc1ccc(-c2noc(Cn3cc(-c4ccccc4)nn3)n2)cc1 [Compound 7c, 3-(4-Chlorophenyl)-5-[(4-phenyl-1H-1,2,3-triazol-1-yl)methyl]-1,2,4-oxadiazole] | 89 |  |  |  |  |  |  |  |  | 
4 | 0.08 ± 0.008 | 0.084 ± 0.008 | 0.082 ± 0.008 |  | 0.08 ± 0.008 |  |  |  |  | Brc1ccc(-c2noc(Cn3cc(-c4ccccc4)nn3)n2)cc1 [Compound 7d, 3-(4-Bromophenyl)-5-[(4-phenyl-1H-1,2,3-triazol-1-yl)methyl]-1,2,4-oxadiazole] | 88 |  |  |  |  |  |  |  |  | 
5 | 0.1 ± 0.01 | 0.102 ± 0.009 | 0.102 ± 0.01 | 3 | 0.098 ± 0.009 |  |  |  |  | Cc1ccc(-c2noc(Cn3cc(-c4ccccc4)nn3)n2)cc1 [Compound 7e, 3-(4-Methylphenyl)-5-[(4-phenyl-1H-1,2,3-triazol-1-yl)methyl]-1,2,4-oxadiazole] | 91 |  |  |  |  |  |  |  |  | 
6 | 0.048 ± 0.004 | 0.051 ± 0.005 | 0.046 ± 0.004 |  | 0.048 ± 0.004 |  |  |  |  | COc1ccc(-c2noc(Cn3cc(-c4ccccc4)nn3)n2)cc1 [Compound 7f, 3-(4-Methoxyphenyl)-5-[(4-phenyl-1H-1,2,3-triazol-1-yl)methyl]-1,2,4-oxadiazole] | 90 |  |  |  |  |  |  |  |  | 
7 | 0.068 ± 0.006 | 0.068 ± 0.006 | 0.066 ± 0.006 |  | 0.066 ± 0.006 |  |  |  |  | FC(F)(F)c1ccc(-c2noc(Cn3cc(-c4ccccc4)nn3)n2)cc1 [Compound 7g, 3-(4-Trifluoromethylphenyl)-5-[(4-phenyl-1H-1,2,3-triazol-1-yl)methyl]-1,2,4-oxadiazole] | 87 |  |  |  |  |  |  |  |  | 
8 | 0.04 ± 0.004 | 0.044 ± 0.004 | 0.042 ± 0.004 |  | 0.04 ± 0.004 |  | 0.105 ± 0.01 | 0.0069 ± 7e-05 |  | Clc1cccc(-c2noc(Cn3cc(-c4ccccc4)nn3)n2)c1 [Compound 7h, 3-(3-Chlorophenyl)-5-[(4-phenyl-1H-1,2,3-triazol-1-yl)methyl]-1,2,4-oxadiazole] | 90 |  |  |  |  |  |  |  |  | 
9 | 0.037 ± 0.003 | 0.039 ± 0.003 | 0.037 ± 0.003 |  | 0.036 ± 0.003 |  | 0.097 ± 0.009 | 0.0055 ± 5e-05 |  | Brc1cccc(-c2noc(Cn3cc(-c4ccccc4)nn3)n2)c1 [Compound 7i, 3-(3-Bromophenyl)-5-[(4-phenyl-1H-1,2,3-triazol-1-yl)methyl]-1,2,4-oxadiazole] | 89 |  |  |  |  |  |  |  |  | 
10 | 0.034 ± 0.003 | 0.036 ± 0.003 | 0.036 ± 0.003 |  | 0.033 ± 0.003 |  | 0.089 ± 0.008 | 0.0047 ± 4e-05 |  | Clc1ccc(-c2noc(Cn3cc(-c4ccccc4)nn3)n2)c(Cl)c1 [Compound 7j, 3-(2,4-Dichlorophenyl)-5-[(4-phenyl-1H-1,2,3-triazol-1-yl)methyl]-1,2,4-oxadiazole] | 91 | 460 ± 4 | 7.0 | 2.00 | 22 | 0.95 | 5 | 291 | 32 | 
11 | 0.032 ± 0.003 | 0.035 ± 0.003 | 0.032 ± 0.003 |  | 0.03 ± 0.003 |  | 0.082 ± 0.007 | 0.0038 ± 3e-05 |  | COc1ccc(-c2noc(Cn3cc(-c4ccccc4)nn3)n2)cc1OC [Compound 7k, 3-(3,4-Dimethoxyphenyl)-5-[(4-phenyl-1H-1,2,3-triazol-1-yl)methyl]-1,2,4-oxadiazole] | 89 | 530 ± 5 | 8 | 2.30 | 25 | 0.80 | 6 | 310 | 34 | 
12 | 0.028 ± 0.002 | 0.03 ± 0.003 | 0.028 ± 0.002 |  | 0.026 ± 0.002 |  |  | 0.0047 |  | COc1cc(-c2noc(Cn3cc(-c4ccccc4)nn3)n2)cc(OC)c1OC [Compound 7l, 3-(3,4,5-Trimethoxyphenyl)-5-[(4-phenyl-1H-1,2,3-triazol-1-yl)methyl]-1,2,4-oxadiazole] | 88 | 587 ± 5 | 9 | 2.55 | 28 | 0.60 | 8 | 362 | 40 | 
13 | 0.046 ± 0.004 | 0.048 ± 0.004 | 0.044 ± 0.004 | 1.4 | 0.042 ± 0.004 |  |  |  |  | c1ccc(-c2cn(Cc3nc(-c4cccc5ccccc45)no3)nn2)cc1 [Compound 7m, 3-(Naphthalen-1-yl)-5-[(4-phenyl-1H-1,2,3-triazol-1-yl)methyl]-1,2,4-oxadiazole] | 87 |  |  |  |  |  |  |  |  | 
14 | 0.07 ± 0.007 | 0.074 ± 0.007 | 0.072 ± 0.007 | 2.4 | 0.068 ± 0.006 |  |  |  | 1.7 | c1ccc(-c2cn(Cc3nc(-c4ccc5ccccc5c4)no3)nn2)cc1 [Compound 7n, 3-(Naphthalen-2-yl)-5-[(4-phenyl-1H-1,2,3-triazol-1-yl)methyl]-1,2,4-oxadiazole] | 89 |  |  |  |  |  |  |  |  | 
15 | 0.078 ± 0.007 | 0.08 ± 0.008 | 0.076 ± 0.007 |  | 0.074 ± 0.007 |  |  |  |  | c1ccc(-c2cn(Cc3nc(-c4ccc5c(c4)OCO5)no3)nn2)cc1 [Compound 7o, 3-(2H-1,3-Benzodioxol-5-yl)-5-[(4-phenyl-1H-1,2,3-triazol-1-yl)methyl]-1,2,4-oxadiazole] | 91 |  |  |  |  |  |  |  |  | 
16 | 0.03 ± 0.003 | 0.04 ± 0.003 | 0.03 ± 0.003 |  | 0.03 ± 0.003 |  |  |  |  | C#Cc1cccc(Nc2ncnc3cc(OCCOC)c(OCCOC)cc23)c1 [Erlotinib, reference compound] |  |  |  |  |  |  |  |  |  | 0.033
17 |  |  |  |  |  |  |  |  |  | CN[C@@H]1C[C@H]2O[C@@](C)([C@@H]1OC)n1c3ccccc3c3c4c(c5c6ccccc6n2c5c31)C(=O)NC4 [Staurosporine, reference compound] |  | 465 ± 4 |  |  |  | 1.00 |  | 288 |  | 
